Assay results as given in patent publication US12043612B2, “Methods of manufacturing a bifunctional compound, ultrapure forms of the bifunctional compound, and dosage forms comprising the same” (Arvinas Operations, Inc., priority 2020, dated 2024).

Test: Exploratory stability study on Compound A drug substance (HPLC, water content, XRPD)
Type: physicochemical
Set-up: Water Content: unit: wt %
Procedure: This is a reverse phase high performance liquid chromatography (HPLC) method devised to determine the assay and impurity profile of Compound A for release and stability testing. The method was qualified for its intended uses. Forced degradation studies were performed and used to qualify this method as stability indicating. The HPLC parameters are listed below in Table 6.
An exploratory stability study on Compound A is on-going. The stability of Compound A will be studied at 5° C., 25° C./60% RH, and 40° C./75% RH with sampling points at 1, 2, 3, and 6 months. Samples will be analyzed using the stability indicating method TEST-05187 (high performance liquid chromatography (HPLC)).
The critical quality attributes of the drug substance Compound A that will be monitored are appearance, purity, assay (wt %), impurities, water content, and x-ray powder diffraction (XRPD). The container and closure system for the stability study consists of double plastic (PE) bags placed inside an high-density polyethylene (HDPE) container.

[1] = Initial Date (about 3 months after date of manufacture)
[2] = Storage at 5° C. +/− 3° C., Initial Date + 1 Month
[3] = Storage at 5° C. +/− 3° C., Initial Date + 2 Months

N#Cc1ccc(O[C@H]2CC[C@H](NC(=O)c3ccc(N4CCC(CN5CCN(c6cc7c(cc6F)C(=O)N(C6CCC(=O)NC6=O)C7=O)CC5)CC4)nn3)CC2)cc1Cl (some centres unmarked) [Compound A, N-[(1r,4r)-4-(3-chloro-4-cyanophenoxy)cyclohexyl]-6-[4-({4-[2-(2,6-dioxopiperidin-3-yl)-6-fluoro-1,3-dioxo-2,3-dihydro-1H-isoindol-5-yl]piperazin-1-yl}methyl)piperidin-1-yl]pyridazine-3-carboxamide]
Appearance (At Date of Manufacture): Yellow
HPLC Assay (wt %) (At Date of Manufacture): 97.7 wt %
HPLC Impurities (%) RRT 0.50 (Intermediate 5) (At Date of Manufacture): 0.06%
HPLC Impurities (%) RRT 0.89 (At Date of Manufacture): 0.07%
HPLC Impurities (%) RRT 0.90 (At Date of Manufacture): ND (ND = <_0.02%)
HPLC Impurities (%) RRT 0.92 (At Date of Manufacture): 0.07%
HPLC Impurities (%) RRT 0.94 (At Date of Manufacture): ND (ND = <_0.02%)
HPLC Impurities (%) RRT 0.96 (Intermediate 2) (At Date of Manufacture): 0.16%
HPLC Impurities (%) RRT 1.02 (At Date of Manufacture): 0.39%
HPLC Impurities (%) RRT 1.04 (Intermediate 3) (At Date of Manufacture): 0.12%
HPLC Impurities (%) RRT 1.05 (Impurity 1) (At Date of Manufacture): <QL (QL = 0.05%)
HPLC Impurities (%) RRT 1.07 (At Date of Manufacture): 0.19%
HPLC Impurities (%) RRT 1.23 (At Date of Manufacture): 0.06%
HPLC Impurities (%) RRT 1.32 (At Date of Manufacture): ND (ND = <_0.02%)
HPLC Impurities (%) RRT 1.36 (Intermediate 9) (At Date of Manufacture): 0.05%
HPLC Impurities (%) RRT 1.39 (At Date of Manufacture): 0.67%
HPLC Impurities (%) RRT 1.54 (At Date of Manufacture): ND (ND = <_0.02%)
HPLC Purity (%) (At Date of Manufacture): 98.0%
Total Impurities (%) (At Date of Manufacture): 2.0%
Water Content (At Date of Manufacture): 0.27
Water Content (wt %) (At Date of Manufacture): 0.27 wt %
XRPD (At Date of Manufacture): Crystalline
Appearance [1]: Yellow
HPLC Assay (wt %) [1]: 99.5 wt %
HPLC Impurities (%) RRT 0.50 (Intermediate 5) [1]: 0.06%
HPLC Impurities (%) RRT 0.89 [1]: 0.08%
HPLC Impurities (%) RRT 0.90 [1]: <QL (QL = 0.05%)
HPLC Impurities (%) RRT 0.92 [1]: 0.06%
HPLC Impurities (%) RRT 0.94 [1]: ND (ND = <_0.02%)
HPLC Impurities (%) RRT 0.96 (Intermediate 2) [1]: 0.18%
HPLC Impurities (%) RRT 1.02 [1]: 0.38%
HPLC Impurities (%) RRT 1.04 (Intermediate 3) [1]: 0.11%
HPLC Impurities (%) RRT 1.05 (Impurity 1) [1]: ND (ND = <_0.02%)
HPLC Impurities (%) RRT 1.07 [1]: 0.15%
HPLC Impurities (%) RRT 1.23 [1]: 0.06%
HPLC Impurities (%) RRT 1.32 [1]: ND (ND = <_0.02%)
HPLC Impurities (%) RRT 1.36 (Intermediate 9) [1]: ND (ND = <_0.02%)
HPLC Impurities (%) RRT 1.39 [1]: 0.45%
HPLC Impurities (%) RRT 1.54 [1]: <QL (QL = 0.05%)
HPLC Purity (%) [1]: 98.4%
Total Impurities (%) [1]: 1.3%
Water Content [1]: 0.86
Water Content (wt %) [1]: 0.86 wt %
XRPD [1]: Crystalline
Appearance [2]: Yellow
HPLC Assay (wt %) [2]: 97.4 wt %
HPLC Impurities (%) RRT 0.50 (Intermediate 5) [2]: 0.05%
HPLC Impurities (%) RRT 0.89 [2]: 0.07%
HPLC Impurities (%) RRT 0.90 [2]: <QL (QL = 0.05%)
HPLC Impurities (%) RRT 0.92 [2]: <QL (QL = 0.05%)
HPLC Impurities (%) RRT 0.94 [2]: ND (ND = <_0.02%)
HPLC Impurities (%) RRT 0.96 (Intermediate 2) [2]: 0.18%
HPLC Impurities (%) RRT 1.02 [2]: 0.33%
HPLC Impurities (%) RRT 1.04 (Intermediate 3) [2]: 0.09%
HPLC Impurities (%) RRT 1.05 (Impurity 1) [2]: ND (ND = <_0.02%)
HPLC Impurities (%) RRT 1.07 [2]: 0.15%
HPLC Impurities (%) RRT 1.23 [2]: 0.05%
HPLC Impurities (%) RRT 1.32 [2]: ND (ND = <_0.02%)
HPLC Impurities (%) RRT 1.36 (Intermediate 9) [2]: <QL (QL = 0.05%)
HPLC Impurities (%) RRT 1.39 [2]: 0.58%
HPLC Impurities (%) RRT 1.54 [2]: <QL (QL = 0.05%)
HPLC Purity (%) [2]: 98.4%
Total Impurities (%) [2]: 1.5%
Water Content (wt %) [2]: 0.85 wt %
XRPD [2]: Crystalline
Appearance [3]: Yellow
HPLC Assay (wt %) [3]: 97.4 wt %
HPLC Impurities (%) RRT 0.50 (Intermediate 5) [3]: 0.05%
HPLC Impurities (%) RRT 0.89 [3]: 0.07%
HPLC Impurities (%) RRT 0.90 [3]: <QL (QL = 0.05%)
HPLC Impurities (%) RRT 0.92 [3]: 0.06%
HPLC Impurities (%) RRT 0.94 [3]: <QL (QL = 0.05%)
HPLC Impurities (%) RRT 0.96 (Intermediate 2) [3]: 0.17%
HPLC Impurities (%) RRT 1.02 [3]: 0.29%
HPLC Impurities (%) RRT 1.04 (Intermediate 3) [3]: <QL (QL = 0.05%)
HPLC Impurities (%) RRT 1.05 (Impurity 1) [3]: ND (ND = <_0.02%)
HPLC Impurities (%) RRT 1.07 [3]: 0.15%
HPLC Impurities (%) RRT 1.23 [3]: <QL (QL = 0.05%)
HPLC Impurities (%) RRT 1.32 [3]: 0.05%
HPLC Impurities (%) RRT 1.36 (Intermediate 9) [3]: <QL (QL = 0.05%)
HPLC Impurities (%) RRT 1.39 [3]: 0.61%
HPLC Impurities (%) RRT 1.54 [3]: <QL (QL = 0.05%)
HPLC Purity (%) [3]: 98.4%
Total Impurities (%) [3]: 1.5%
Water Content (wt %) [3]: 1.0 wt %
XRPD [3]: Crystalline
